Values joined by “and” are separate entries in the source; they are usually repeats but may differ in a detail not shown here. Identical values can stand only once.
How the values were obtained:
[1] = tested on: B16V mouse melanoma cells; assay: B16 V mouse melanoma cell test: melanin concentration after alpha-MSH stimulation; format: cell-based; settings: for Relative melanin concentration (%): DMSO (0.1%) + α-MSH 10^-8 M, relative to blank DMSO + α-MSH = 100%
Description: Description of the performance of the B16 V mouse melanoma cell test:
B16V mouse melanoma cells (manufacturer: DSMZ; Article No.: ACC370) in RPMI medium (Invitrogen, Article No.: 31870), to which 10% of FBS (foetal bovine serum, Invitrogen, Article No: 10499044), 2 mM L-glutamine (Invitrogen, Article No: 25030) and 1 mM sodium pyruvate (Invitrogen, Article No: 11360) had additionally been added (modified RPMI medium), are transferred into a culture bottle and incubated at 37° C. and 5% CO2 for 72 h. The medium is separated off, and the cells are washed with 10 ml of D-PBS (Invitrogen, Article No. 14190) and subsequently filtered off with suction. 1 ml of HyQtase cell detachment solution (Hyclone, Article No. SV30030.01) is added to the cells. The bottle is swirled a number of times, and the HyQtase cell detachment solution is subsequently removed by suction. The cells are then incubated in the incubator at 37° C. and 5% CO2for 5 min. The cells are taken up in the modified RPMI medium (Invitrogen, Article No.: 31870), and the cell count is determined. To this end, the cells are stained with Tryptan Blue and counted in a Neubauer chamber. The cells are subsequently sown out again in the modified RPMI medium in a defined cell count of 80,000 cells per well (6-well clear plate, TCT, PS (Nunc)).
The plate is subsequently incubated at 37° C. and 5% CO2 for 24 h, the medium is then removed. 1980 μl of the isomaltulose dilution are subsequently added. For this substance dilution, the isomaltulose is dissolved in DMSO and subsequently filtered through a sterile filter (0.2 μm, Millipore, Article No. SLLG013SL). The solution is then diluted with the modified RPMI medium (in this case the FBS content in the RPMI medium is only 5%) in such a way that the isomaltulose concentration is 1 mM or 5 mM. 20 μl of an alpha-MSH solution in DMSO (alpha-melanocyte-stimulating hormone=alpha-MSH) (DMSO, Sigma, Article No.:D2650) are then added, so that the alpha-MSH concentration in the well is 10^−8 M. The plate is subsequently incubated again at 37° C. and 5% CO2 for 24 h. […]
After the final incubation period, the medium is removed by suction, and the cells are washed with 1000 μl of D-PBS (Invitrogen, Article No. 14190). […] The cell count is subsequently determined. To this end, the cells are stained with Tryptan Blue and counted in a Neubauer chamber. […] 200 μl are then pipetted as quadruple determination (per cup) into a 96-well plate (VWR, Article No. 4100636981), and the absorption at a wavelength of 405 nm is determined. […] The content of melanin can be determined in this way by means of a calibration line.
The other values were determined relative to the blank sample with dimethyl sulfoxide (DMSO) and α-MSH, whose measurement was set at 100%

[2] = tested on: explants from the stomach tissue of a pale-skinned person; assay: Ex-vivo study: chromametric colour measurement (L, a, b) of skin explants; design: species or system human; key to a / b: CIE L*a*b* colour coordinates (Minolta CR-300, D65); settings: for L / a / b: n=3, listed as P2
Description: 12 explants from the stomach tissue of a pale-skinned person (type) having an average diameter of 10 mm are prepared (reference: […]-AB49). The explants are kept in a BEM medium (BIO-EC's explants medium) at 37° C. in a moist atmosphere comprising 5% of CO2. The following samples are tested: (in each case 3 explants), where the solutions of the corresponding substances used comprise 90% of water and 10% of ethanol. […] 2 μl of the respective sample are added to the explants and distributed for the first time (DO), 1 day later (D1), 2 days later (D2), 3 days later (D3) and 4 days later (D4). The colour of the explants is determined chromametrically. The measurements are carried out on addition (DO), on day 1 (D1), on day 5 (D5) and on day 11 (D11). The colour measurements are carried out using a Minolta CR-300 Chroma-meter, and the L, a and b values are read off correspondingly on the instrument. […] A colour area is present here which is viewed at a viewing angle of 2 degrees. This viewing angle is used as standard in the chromametric measurement. • Irradiation source D65, corresponding to daylight • Region of the measurement: 3 mm • Parameters used: L* a* b* The sample is placed on the bearing rail with the epidermis facing downwards. The irradiation is carried out from the underside through the area indicated (3 mm). In the colorimetric determinations <L a b>, the L value determines the contrast of the skin. If the L value drops, the skin appears darker.

[3] = D0 (on addition), single explant values
[4] = D1, 2 μl sample applied D0-D4, single explant values
[5] = D5, 2 μl sample applied D0-D4, single explant values
[6] = D11, 2 μl sample applied D0-D4, single explant values
[7] = in comparison with the untreated sample

Row | SMILES | Relative melanin concentration (%) ([1]; 1 mM) | Relative melanin concentration (%) ([1]; 5 mM) | melanin production ([1]; cell culture tests with B16V mouse melanoma cells) | L [2, 3] | a [2, 3] | b [2, 3] | L [2, 4] | a [2, 4] | b [2, 4] | L [2, 5] | a [2, 5] | b [2, 5] | L [2, 6] | a [2, 6] | b [2, 6] | skin darkness (L values) [2, 7] | skin shade, red-brown shift (a value) [2, 7]
1 | OC[C@H]1O[C@H](OC[C@H]2OC(O)(CO)[C@@H](O)[C@@H]2O)[C@H](O)[C@@H](O)[C@@H]1O (stereo partly drawn) [isomaltulose, α-D-glucopyranose-(1→6)-D-fructose (open, α- or (β-form) (isomaltulose)] | 65.0 | 58.1 | reduces melanin production | 62.89 and 62.96 and 61.62 | 2.75 and 2.19 and 3.28 | 15.88 and 18.71 and 18.43 | 63.09 and 64.04 and 62.97 | 3.72 and 2.1 and 3.32 | 16.05 and 17.73 and 17.92 | 63.79 and 62.89 and 63.61 | 2.57 and 2.67 and 3.26 | 14.33 and 17.15 and 16.3 | 65.69 and 59.72 and 60.71 | 2.41 and 3.44 and 3.59 | 12.35 and 11.35 and 11.57 | darkening of the skin | more natural skin shade
2 | O=c1cc(CO)occ1O [kojic acid, reference compound] | 71.4 |  |  |  |  |  |  |  |  |  |  |  |  |  |  |  | 

Reference: patent US20130108565A1, “TANNING ENHANCERS AND SELF-TANNING SUBSTANCES” (MERCK PATENT GESELLSCHAFT MIT BESCHRANKTER HAFTUNG, priority 2010, published 2013)
